According to patent US11835523B2, “Assays for improving automated antimicrobial susceptibility testing accuracy” (priority 2018, dated 2023):

What was measured:
Format in all cases: cell-based
[1] = test system: K. pneumoniae; assay: Acidimetric carbapenemase assay, four wells, intact microbes (Example 2); details: 5 mg/mL imipenem solution added 1:1, 4 hours
Source text: (§1) In an exemplary embodiment, the assay comprises a minimum of 4 wells and utilizes a sample comprising intact microbes. The first well (Well1) comprises a medium such as a buffered saline solution or a nutrient broth, a carbapenem, ionic zinc, and a pH indictor. The second well (Well2) comprises the medium, a carbapenem, ionic zinc, a pH indictor, and a microbe sample comprising <1×10^8 CFU microbes. The third well (Well3) comprises the medium, ionic zinc, and a pH indictor. The fourth well (Well4) comprises the medium, ionic zinc, a pH indictor, and a microbe sample comprising <1×10^8 CFU microbes. The following formula can then be utilized to normalize the result: Normalized Activity=(Well1−Well2)−(Well3−Well4) [Formula 1]
(§2) The above says that imipenem degradation is the change in pH (e.g. loss of signal) due to the presence of microbes less the change in pH (e.g. loss of signal) due to microbes in solution only.
(§3) Example 2. Microbes were prepared by diluting colonies into saline to reach a McFarland value of 0.5, which was verified using a spectrophotometer. 100 μL of the microbe solution was added to each of 2 wells in a 96-well plate. 100 μL of saline was added to 2 separate wells on the plate. 100 μL of an imipenem solution containing 5 mg/mL imipenem, 0.1 mM ZnSO4, and 10 μM Fluorescein Na salt, pH 8, was added to one of the microbe-containing wells (Well2) and one of the saline wells (Well1). 100 μL of a negative control solution containing 0.1 mM ZnSO4, and 10 μM Fluorescein Na salt pH 7.5, was added to one of the microbe-containing wells (Well4) and one of the saline wells (Well3). Plates were incubated, shaking at 35° C. for 4 hours and fluorescence of the wells was read at […]. The values reported were calculated to determine the hydrolysis of imipenem by the microbes using Equation 1.

[2] = test system: E. coli; assay: as above; design: key: Normalized activity = (Well1−Well2)−(Well3−Well4), pH indicator signal; details: 5 mg/mL imipenem solution added 1:1, 4 hours
Source text: as §1, §2, §3

[3] = test system: K pneumoniae; assay: Carbapenemase assay at various concentrations of imipenem (Example 3); design: unit not given here; details: within 4 hours
Source text: as §1
(§4) Example 3. Microbes were prepared by diluting colonies into saline to reach a McFarland value of 0.5, which was verified using a spectrophotometer. 25 μL of the microbe solution was added to each of 2 wells in a 384-well plate. 25 μL of saline was added to 2 separate wells on the plate. 25 μL of an imipenem solution containing imipenem, 0.1 mM ZnSO4, and 10 μm Fluorescein Na Salt, pH 8, was added to one of the microbe-containing wells (Well2) and one of the saline wells […]. 25 μL of a negative control solution containing 0.1 mM ZnSO4, and 10 μM Fluorescein Na Salt, pH 7.5, was added to one of the microbe containing wells (Well4) and one of the saline wells (Well3). Plates were incubated, shaking at 35° C. for 3 hours and fluorescence of the wells was read at Em=490/Ex=510. This organization of the assay was performed multiple times, varying the concentration of imipenem in solution. The assay was run with final imipenem concentrations of 50 μg/mL, 125 μg/mL, 250 μg/mL, 500 μg/mL, 1250 μg/mL, and 2500 μg/mL. The values reported were calculated to determine the hydrolysis of imipenem by the microbes using Equation 1.

[4] = test system: E coli; assay: as above; details: within 4 hours
Source text: as §1, §4

[5] = test system: E coli; assay: Carbapenemase assay performed with dried reagents (Example 4); details: E coli ATCC 25922, known carbapenemase none, 300 μg/mL imipenem, 4 hours
Source text: as §1
(§5) Example 4. Microbes were prepared by diluting colonies into saline to reach a McFarland value of 0.5, which was verified using a spectrophotometer. 100 μL of the microbe solution was added to each of 2 wells in a vacuum-dried 96-well plate (Well2, Well4). 100 μL of saline was added to 2 separate wells on the plate (Well1 and Well3). Following addition of microbial or saline solutions, the final concentrations of the contents in each well were: 300 μg/mL imipenem, 0.05 mM ZnSO4, and 10 μM Fluorescein Na Salt, pH 7.8, (Well1, Well2); only 0.05 mM ZnSO4 and 10 μM Fluorescein Na Salt, pH 7.8, were present in the third and four wells (Well3, Well4). Plates were incubated, shaking at 35° C. for 4 hours and fluorescence of the wells was read at Em=490/Ex=510. The values reported were calculated to determine the hydrolysis of imipenem by the microbes using Equation 1.

[6] = test system: K pneumoniae; assay: as above; details: 4 hours
Source text: as §1, §5

[7] = test system: beta lactamase; assay: Beta-lactamase inhibitor assay with nitrocefin probe (Example 1, FIG. 1); details: 4 μg/mL inhibitor, 0.25 mg/mL nitrocefin, 35° C., 4 hours
Protocol: By comparing the signal from an “inhibited” well to one containing the probe and microbes alone, the efficacy of the inhibitor may be tested.
Microbes were prepared by diluting colonies into saline to reach a McFarland value of 0.5, which was verified using a spectrophotometer. This was diluted 1:20 into saline and 50 μI of inoculum was added to wells of a 384-well plate. For each strain, 25 μI of solutions containing either 0.25 mg/mL nitrocefin alone (Nitro), 0.25 mg/mL nitrocefin and 4 μg/mL clauvulanate (Nitro Clay), or 0.25 mg/mL nitrocefin and 4 μg/mL tazobactam (Nitro Tazo) were added to duplicate wells. Inoculated plates were incubated at 35° C., shaking at 150 rpm for 4 hours. Absorbance was read at 490 nm and values shown in FIG. 1 are the absorbance in the indicated condition minus the absorbance from microbial inoculum alone without nitrocefin. A greater value indicates microbial ability to degrade nitrocefin, and thus, the presence of a beta lactamase. A reduction in absorbance value in the presence of an inhibitor indicates the beta lactamase present is sensitive to the inhibitor.

Structure (SMILES): C[C@@H](O)[C@H]1C(=O)N2C(C(=O)O)=C(SCCN=CN)C[C@H]12 [imipenem]
- Carbapenemase Activity ([1]; K. pneumoniae 700603, known carbapenemase none): −2659.8725
- Carbapenemase Activity ([1]; K. pneumoniae CDC CNP 03, known carbapenemase IMP): 3662.106
- Carbapenemase Activity ([1]; K. pneumoniae CDC CNP 08, known carbapenemase OXA-181): 1323.2385
- Carbapenemase Activity ([1]; K. pneumoniae CDC CNP 09, known carbapenemase VIM): 2315.76
- Carbapenemase Activity ([1]; K. pneumoniae SML86, known carbapenemase none): −1861.1485
- Carbapenemase Activity ([1]; K. pneumoniae SML87, known carbapenemase none): −3075.4205
- Carbapenemase Activity ([2]; E. coli 25922, known carbapenemase none): −2106.4115
- Carbapenemase Activity ([2]; E. coli AEL18, known carbapenemase none): −1551.4885
- Carbapenemase Activity ([2]; E. coli AEL19, known carbapenemase none): −696.4825
- Carbapenemase Activity ([2]; E. coli AEL 20, known carbapenemase none): −882.3165
- Carbapenemase Activity ([2]; E. coli AR0346, known carbapenemase none, ESBL +): −2560.861
- Carbapenemase Activity ([2]; E. coli AR0348, known carbapenemase none): −2960.1665
- Carbapenemase Activity ([2]; E. coli AR0349, known carbapenemase none, ESBL +): −2861.008
- Carbapenemase Activity ([2]; E. coli CDC BIT 01, known carbapenemase KPC): 8803.9255
- Carbapenemase Activity ([2]; E. coli CDC CNP 27, known carbapenemase none, ESBL +): −2401.2335
- Carbapenemase Activity ([2]; E. coli CDC CNP 38, known carbapenemase NDM): 19534.8825
- Carbapenemase Activity ([2]; E. coli CDC CNP 54, known carbapenemase none, Amp beta lactamase): −1950.443
- Carbapenemase Activity ([2]; E. coli CDC CNP 73, known carbapenemase KPC): 3480.1845
- Carbapenemase Activity ([2]; E. coli CDC CRE 03, known carbapenemase KPC-3): 7149.729
- Carbapenemase Activity ([2]; E. coli CDC CRE 07, known carbapenemase NDM): 27447.359
- Carbapenemase Activity ([2]; E. coli CDC CRE 17, known carbapenemase NDM): 36400.9235
- Carbapenemase Activity ([2]; E. coli CDC CRE 26, known carbapenemase NDM): 41326.61
- Carbapenemase Activity ([2]; E. coli SML 19, known carbapenemase none): −2540.0545
- Carbapenemase Activity ([2]; E. coli SML20, known carbapenemase none): −2734.3825
- Carbapenemase Activity ([2]; E. coli TRICORE 71, known carbapenemase none): −1138.2225
- Carbapenemase Activity ([2]; E. coli TRICORE 72, known carbapenemase none): −2554.797
- Carbapenemase Activity in various concentrations of imipenem ([3]; K pneumoniae AR 34, known carbapenemase IMP, 50 μg/mL imipenem): 1034.5
- Carbapenemase Activity in various concentrations of imipenem ([3]; K pneumoniae AR 34, known carbapenemase IMP, 125 μg/mL imipenem): 2776.5
- Carbapenemase Activity in various concentrations of imipenem ([3]; K pneumoniae AR 34, known carbapenemase IMP, 250 μg/mL imipenem): 2456.5
- Carbapenemase Activity in various concentrations of imipenem ([3]; K pneumoniae AR 34, known carbapenemase IMP, 500 μg/mL imipenem): 1807.5
- Carbapenemase Activity in various concentrations of imipenem ([3]; K pneumoniae AR 34, known carbapenemase IMP, 1250 μg/mL imipenem): 1148
- Carbapenemase Activity in various concentrations of imipenem ([3]; K pneumoniae AR 34, known carbapenemase IMP, 2500 μg/mL imipenem): 637.5
- Carbapenemase Activity in various concentrations of imipenem ([3]; K pneumoniae ATCC BAA-2342, known carbapenemase KPC, 50 μg/mL imipenem): 1817
- Carbapenemase Activity in various concentrations of imipenem ([3]; K pneumoniae ATCC BAA-2342, known carbapenemase KPC, 125 μg/mL imipenem): 4702.5
- Carbapenemase Activity in various concentrations of imipenem ([3]; K pneumoniae ATCC BAA-2342, known carbapenemase KPC, 250 μg/mL imipenem): 4270.5
- Carbapenemase Activity in various concentrations of imipenem ([3]; K pneumoniae ATCC BAA-2342, known carbapenemase KPC, 500 μg/mL imipenem): 3708
- Carbapenemase Activity in various concentrations of imipenem ([3]; K pneumoniae ATCC BAA-2342, known carbapenemase KPC, 1250 μg/mL imipenem): 3251
- Carbapenemase Activity in various concentrations of imipenem ([3]; K pneumoniae ATCC BAA-2342, known carbapenemase KPC, 2500 μg/mL imipenem): 3114.5
- Carbapenemase Activity in various concentrations of imipenem ([4]; E coli AR 69, known carbapenemase NDM, 50 μg/mL imipenem): 1111
- Carbapenemase Activity in various concentrations of imipenem ([4]; E coli AR 69, known carbapenemase NDM, 125 μg/mL imipenem): 3367
- Carbapenemase Activity in various concentrations of imipenem ([4]; E coli AR 69, known carbapenemase NDM, 250 μg/mL imipenem): 2827
- Carbapenemase Activity in various concentrations of imipenem ([4]; E coli AR 69, known carbapenemase NDM, 500 μg/mL imipenem): 2300.5
- Carbapenemase Activity in various concentrations of imipenem ([4]; E coli AR 69, known carbapenemase NDM, 1250 μg/mL imipenem): 1908.5
- Carbapenemase Activity in various concentrations of imipenem ([4]; E coli AR 69, known carbapenemase NDM, 2500 μg/mL imipenem): 1902.5
- Carbapenemase Activity in various concentrations of imipenem ([4]; E coli AR 114, known carbapenemase KPC3, 50 μg/mL imipenem): 930.5
- Carbapenemase Activity in various concentrations of imipenem ([4]; E coli AR 114, known carbapenemase KPC3, 125 μg/mL imipenem): 3793.5
- Carbapenemase Activity in various concentrations of imipenem ([4]; E coli AR 114, known carbapenemase KPC3, 250 μg/mL imipenem): 3342.5
- Carbapenemase Activity in various concentrations of imipenem ([4]; E coli AR 114, known carbapenemase KPC3, 500 μg/mL imipenem): 2784.5
- Carbapenemase Activity in various concentrations of imipenem ([4]; E coli AR 114, known carbapenemase KPC3, 1250 μg/mL imipenem): 2173.5
- Carbapenemase Activity in various concentrations of imipenem ([4]; E coli AR 114, known carbapenemase KPC3, 2500 μg/mL imipenem): 1825.5
- Carbapenemase Activity in various concentrations of imipenem ([4]; E coli ATCC 25922, known carbapenemase none, 50 μg/mL imipenem): −70.5
- Carbapenemase Activity in various concentrations of imipenem ([4]; E coli ATCC 25922, known carbapenemase none, 125 μg/mL imipenem): −522
- Carbapenemase Activity in various concentrations of imipenem ([4]; E coli ATCC 25922, known carbapenemase none, 250 μg/mL imipenem): −599.5
- Carbapenemase Activity in various concentrations of imipenem ([4]; E coli ATCC 25922, known carbapenemase none, 500 μg/mL imipenem): −558.5
- Carbapenemase Activity in various concentrations of imipenem ([4]; E coli ATCC 25922, known carbapenemase none, 1250 μg/mL imipenem): −463.5
- Carbapenemase Activity in various concentrations of imipenem ([4]; E coli ATCC 25922, known carbapenemase none, 2500 μg/mL imipenem): −282
- Carbapenemase Activity [5]: −6116
- Carbapenemase Activity ([6]; K pneumoniae ATCC 700603, known carbapenemase none, 300 μg/mL imipenem): −2026
- Carbapenemase Activity ([6]; K pneumoniae ATCC BAA-1705, known carbapenemase KPC2, 300 μg/mL imipenem): 19742
- Carbapenemase Activity ([6]; K pneumoniae ATCC BAA-2814, known carbapenemase KPC3, 300 μg/mL imipenem): 18057

Structure (SMILES): C[C@]1(Cn2ccnn2)[C@H](C(=O)O)N2C(=O)C[C@H]2S1(=O)=O [tazobactam]
- inhibitor activity against strains with known beta lactamases (reduction in nitrocefin absorbance at 490 nm) [7]: active

Structure (SMILES): O=C(O)[C@H]1/C(=C/CO)O[C@@H]2CC(=O)N21 [clauvulanate]
- inhibitor activity against strains with known beta lactamases (reduction in nitrocefin absorbance at 490 nm) [7]: active
